According to patent US6596763B1, “Topical formulations containing as a therapeutic active agent fatty acids or fatty alcohols or monoglyceride derivatives thereof for treating of mucosa infections” (priority 1996, dated 2003):

Columns and labels:
HIV-1 = settings: 25 mM, human plasma, 30 min; cited from earlier work
HIV-2 = settings: 25 mM, human plasma, 30 min; cited from earlier work
HSV-1 [1] = assay: Virucidal activity against HSV-1 in culture medium (MM); format: cell-based, Herpes simplex virus type 1; settings: room temperature, 1 minute
C. trachomatis = assay: Inactivation of C. trachomatis; settings: 37° C., 10 minutes
HSV-1 [2] = assay: Virucidal activity against HSV-1 in human semen; settings: room temperature, 1 minute
Enveloped viruses = settings: virucidal activity in cell culture media; cited from earlier work
VV = assay: Virucidal activity against visna virus (VV) in culture medium (MM); format: cell-based; settings: room temperature, 1 minute
Method: The lipids were dissolved in ethanol at a concentration of 1 M and stored at 4° C. In each experiment they were suspended in MM by vortexing at the highest speed for 1 min.

[3] = test system: vaginal mucosa of rabbits; settings: rabbit, in vivo

CCCCCCCCOC[C@@H](O)CO [1-0-Octyl-SN-glycerol]
inactivated HIV-1 (HIV-1): more than 10^9 fold | inactivated HIV-2 (HIV-2): more than 10^9 fold

CCCCCCCCCC(=O)O [Capric acid, capric acid]
Reduction of virus titer,log10 HSV-1 (HSV-1 [1]; lipid 20 mM in MM): <0.5 log10

CCCCCCCC(=O)OCC(O)CO (stereo not shown) [Caprylic acid 1-monoglyceride, caprylic acid 1-monoglyceride]
Reduction of IFU (log10) (C. trachomatis; monoglyceride 5 mM in medium): 0.1 log10 | Reduction of IFU (log10) (C. trachomatis; monoglyceride 10 mM in medium): 0.3 log10 | Reduction of IFU (log10) (C. trachomatis; monoglyceride 20 mM in medium): 0.2 log10 | Reduction of HSV-1 titer, log10 (HSV-1 [2]; monoglyceride 20 mM): 1.0 log10 | Reduction of virus titer,log10 HSV-1 (HSV-1 [1]; lipid 10 mM in MM): 0 log10 | Reduction of virus titer,log10 HSV-1 (HSV-1 [1]; lipid 20 mM in MM): 0.5 log10

CCCCCCCCCCCC(=O)OCC(O)CO (stereo not shown) [Lauric acid 1-monoglyceride, lauric acid 1-monoglyceride]
Reduction of IFU (log10) (C. trachomatis; monoglyceride 5 mM in medium): 0.5 log10 | Reduction of IFU (log10) (C. trachomatis; monoglyceride 10 mM in medium): 0.7 log10 | Reduction of IFU (log10) (C. trachomatis; monoglyceride 20 mM in medium): 0.5 log10 | Reduction of HSV-1 titer, log10 (HSV-1 [2]; monoglyceride 20 mM): 2.0 log10 | more active than the corresponding free fatty acid (capric and lauric acids) (Enveloped viruses): 10 fold | Reduction of virus titer,log10 HSV-1 (HSV-1 [1]; lipid 5 mM in MM): 3.0 log10 | Reduction of virus titer,log10 HSV-1 (HSV-1 [1]; lipid 10 mM in MM): 3.5 log10 | Reduction of virus titer,log10 HSV-1 (HSV-1 [1]; lipid 20 mM in MM): 3.1 log10

CCCCCCCCCCCC(=O)O [Lauric acid, lauric acid]
Reduction of virus titer,log10 HSV-1 (HSV-1 [1]; lipid 10 mM in MM): <1.5 log10 | Reduction of virus titer,log10 HSV-1 (HSV-1 [1]; lipid 20 mM in MM): >5.8 log10

CCCCCCCCCC(=O)OCC(O)CO (stereo not shown) [Monocaprin, capric acid 1-monoglyceride]
Reduction of IFU (log10) (C. trachomatis; monoglyceride 5 mM in medium): >5.6 log10 | Reduction of IFU (log10) (C. trachomatis; monoglyceride 10 mM in medium): >5.6 log10 | Reduction of IFU (log10) (C. trachomatis; monoglyceride 20 mM in medium): >4.6 log10 | Reduction of HSV-1 titer, log10 (HSV-1 [2]; monoglyceride 10 mM): 3.0 log10 | Reduction of HSV-1 titer, log10 (HSV-1 [2]; monoglyceride 20 mM): >4.0 log10 | more active than the corresponding free fatty acid (capric and lauric acids) (Enveloped viruses): 10 fold | Reduction of virus titer,log10 VV (VV; lipid 10 mM in MM): 2.4 log10 | Reduction of virus titer,log10 VV (VV; lipid 20 mM in MM): 3.8 log10 | Reduction of virus titer,log10 HSV-1 (HSV-1 [1]; lipid 2.5 mM in MM): 2.2 log10 | Reduction of virus titer,log10 HSV-1 (HSV-1 [1]; lipid 5 mM in MM): >5.5 log10 | Reduction of virus titer,log10 HSV-1 (HSV-1 [1]; lipid 10 mM in MM): >5.3 log10 | Reduction of virus titer,log10 HSV-1 (HSV-1 [1]; lipid 20 mM in MM): >5.8 log10

CCCCCCCCCCCCCC(=O)O [Myristic acid, myristic acid]
Reduction of virus titer,log10 HSV-1 (HSV-1 [1]; lipid 10 mM in MM): 0 log10 | Reduction of virus titer,log10 HSV-1 (HSV-1 [1]; lipid 20 mM in MM): 0 log10

CCCCCCCC/C=C\CCCCCCCC(=O)OCC(O)CO (stereo not shown) [Oleic acid 1-monoglyceride, oleic acid 1-monoglyceride]
Reduction of virus titer,log10 HSV-1 (HSV-1 [1]; lipid 10 mM in MM): <1.0 log10 | Reduction of virus titer,log10 HSV-1 (HSV-1 [1]; lipid 20 mM in MM): <1.0 log10

CCCCCCCC/C=C\CCCCCCCC(=O)O [Oleic acid, oleic acid]
Reduction of virus titer,log10 HSV-1 (HSV-1 [1]; lipid 10 mM in MM): <1.0 log10 | Reduction of virus titer,log10 HSV-1 (HSV-1 [1]; lipid 20 mM in MM): <1.0 log10

CCCCCC/C=C\CCCCCCCC(=O)OCC(O)CO (stereo not shown) [Palmitoleic acid 1-monoglyceride, palmitoleic acid 1-monoglyceride]
Reduction of virus titer,log10 VV (VV; lipid 10 mM in MM): 0.7 log10 | Reduction of virus titer,log10 HSV-1 (HSV-1 [1]; lipid 10 mM in MM): 0 log10 | Reduction of virus titer,log10 HSV-1 (HSV-1 [1]; lipid 20 mM in MM): 0 log10

CCCCCC/C=C\CCCCCCCC(=O)O [Palmitoleic acid, palmitoleic acid]
Reduction of virus titer,log10 HSV-1 (HSV-1 [1]; lipid 5 mM in MM): <1.0 log10 | Reduction of virus titer,log10 HSV-1 (HSV-1 [1]; lipid 10 mM in MM): >5.0 log10

CC(O)CO (stereo not shown) [propylene glycol]
effects in the vaginal mucosa of rabbits (in words) [3]: toxic effects
